Test results from US20260078135A1, “POLYCYCLIC QUINAZOLINES FOR INHIBITION OF ERBB2” (Enliven Inc., priority 2022, published 2026).

Key:
[1] = target: Ba/F3 ERBB2 YVMA (Homo sapiens, UniProt P04626, DUP772-775, cells depend on it); test: Cell viability assay (CellTiter Glo), Ba/F3 cells engineered to express ERBB2 YVMA; assay type: cell-based, mouse; details: Ba/F3 cells expressing human ERBB2 YVMA mutant, 72 hours, read-out: Ba/F3 ERBB2 YVMA, IC50
Method: Cells were treated with compounds, and cell viability was measured as a metric of kinase inhibition.
BT-474, A431, MDA-MB-175VII, NCI-H1781, MCF7, and Ba/F3 cell lines were tested. The Ba/F3 cell line is IL-3-dependent mouse cell line derived from the C3H mouse strain. Ba/F3 cell lines were engineered to express human ERBB2 or EGFR kinases, rendering the cells IL-3 independent. The lines were generated via retroviral transduction utilizing a Moloney murine leukemia virus (MMLV) promoter, and constructs are stably integrated into the cell genome. The sequences of the ERBB2 and EGFR genes used were NCBI Reference Sequences NM_004448.3 and NM_005228.3, respectively.
BT-474, A431, MDA-MB-175VII, NCI-H1781 and MCF7 cells were grown in the appropriate growth medium as described in Table B2 below, and harvested at 50-80% confluence. BT-474, A431, MDA-MB-175VII, NCI-H1781 and MCF7 cells were counted and seeded at 2,000 or 1,500 cells per well in 384-well tissue culture plates (see Table B2). Similarly, Ba/F3 cell lines engineered to express EGFR, ERBB2, or ERBB2 mutants were grown, harvested, counted and seeded at 3000 cells per well in 96-well plates. A subset of wells contained media only (low control, “LC”).
Table B1 provides the growth media and number of cells seeded per well for the each cell line.
Compounds were dissolved in DMSO and serially diluted. Serially-diluted compound or a DMSO only control (high control, “HC”) was added to the plated cells in each well. Compounds were tested at concentrations of about 10 μM to 0.51 nM, using three-fold dilutions. The final proportion of DMSO never exceeded 0.1%.
Plates were placed in a 37° C., 5% CO2 incubator for 72 hours. Plates were then removed from the incubator and equilibrated for 15 minutes at room temperature. 40 μl of CellTiter Glo reagent (Promega) was added to measure the relative level of metabolically active cells by quantifying intracellular ATP concentrations. Plates were incubated for 30 minutes at room temperature, and luminescence was measured. Percent viability was normalized to a vehicle control only using the following formula: % viability=100×(Lumsample−LumLC)/(LumHC−LumLC). Graphical curves were fitted using a nonlinear regression model with a sigmoidal dose response.

[2] = target: T1, phosphorylated ERBB2 (pERBB2) (Homo sapiens, UniProt P04626); test: Detection of phosphorylated ERBB2 (pERBB2) by ELISA in BT-474 cells; assay type: cell-based; details: four hour incubation
T1 construct: endogenous in cells; host or cells: BT-474
T1 sequence (P04626 23-1255): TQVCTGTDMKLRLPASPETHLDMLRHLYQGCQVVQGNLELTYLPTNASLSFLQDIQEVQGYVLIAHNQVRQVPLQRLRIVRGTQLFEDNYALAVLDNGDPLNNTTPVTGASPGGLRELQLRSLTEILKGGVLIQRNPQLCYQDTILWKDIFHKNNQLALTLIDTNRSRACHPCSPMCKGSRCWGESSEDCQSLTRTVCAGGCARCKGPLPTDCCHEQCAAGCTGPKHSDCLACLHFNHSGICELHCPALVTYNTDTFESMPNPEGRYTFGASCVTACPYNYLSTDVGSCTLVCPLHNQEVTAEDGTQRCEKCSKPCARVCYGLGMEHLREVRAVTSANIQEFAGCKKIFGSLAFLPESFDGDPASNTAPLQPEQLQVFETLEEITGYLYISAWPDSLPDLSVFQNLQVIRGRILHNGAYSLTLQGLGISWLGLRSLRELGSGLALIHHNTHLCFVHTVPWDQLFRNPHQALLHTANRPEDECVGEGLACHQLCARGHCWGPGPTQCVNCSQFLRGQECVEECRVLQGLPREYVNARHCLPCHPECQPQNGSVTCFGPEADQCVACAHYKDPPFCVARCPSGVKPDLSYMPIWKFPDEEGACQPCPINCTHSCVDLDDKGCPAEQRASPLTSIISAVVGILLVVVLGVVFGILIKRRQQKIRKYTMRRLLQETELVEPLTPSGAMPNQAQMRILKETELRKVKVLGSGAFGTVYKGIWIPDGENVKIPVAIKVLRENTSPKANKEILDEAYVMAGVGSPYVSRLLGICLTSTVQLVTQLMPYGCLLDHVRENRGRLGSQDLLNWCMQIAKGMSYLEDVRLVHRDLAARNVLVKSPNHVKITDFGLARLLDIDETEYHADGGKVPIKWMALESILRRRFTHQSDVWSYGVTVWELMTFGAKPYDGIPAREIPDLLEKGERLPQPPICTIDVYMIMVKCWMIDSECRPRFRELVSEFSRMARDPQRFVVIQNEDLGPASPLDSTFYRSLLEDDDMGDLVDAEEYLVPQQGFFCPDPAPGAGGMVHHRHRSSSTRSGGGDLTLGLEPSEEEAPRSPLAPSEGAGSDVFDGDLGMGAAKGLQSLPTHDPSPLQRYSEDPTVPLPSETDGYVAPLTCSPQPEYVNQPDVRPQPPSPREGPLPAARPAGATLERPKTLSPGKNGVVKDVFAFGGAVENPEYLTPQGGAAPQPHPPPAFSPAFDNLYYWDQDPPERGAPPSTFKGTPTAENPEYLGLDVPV
Outline: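 BT-474 cells were treated with compounds (fourfold dilutions, 10 μM to 0.01 nM final) for 4 h at 37 °C, then lysed. pERBB2 in lysates was quantified by ELISA with an HRP anti-phosphotyrosine detection antibody and TMB read at 450 nm; % relative activity was normalized to no-cell and 0.1% DMSO controls.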

[3] = target: T2, phosphorylated EGFR (pEGFR) (Homo sapiens, UniProt P00533); test: Detection of phosphorylated EGFR (pEGFR) by AlphaLISA in EGF-stimulated A431 cells; assay type: cell-based; details: A431 cells (10% FBS), 4 hours incubation, EGF 30 ng/mL for 10 minutes
T2 construct: performed to measure phosphorylated EGFR levels using A431 cells (10% FBS); endogenous in cells; host or cells: A431
T2 sequence (P00533 25-1210): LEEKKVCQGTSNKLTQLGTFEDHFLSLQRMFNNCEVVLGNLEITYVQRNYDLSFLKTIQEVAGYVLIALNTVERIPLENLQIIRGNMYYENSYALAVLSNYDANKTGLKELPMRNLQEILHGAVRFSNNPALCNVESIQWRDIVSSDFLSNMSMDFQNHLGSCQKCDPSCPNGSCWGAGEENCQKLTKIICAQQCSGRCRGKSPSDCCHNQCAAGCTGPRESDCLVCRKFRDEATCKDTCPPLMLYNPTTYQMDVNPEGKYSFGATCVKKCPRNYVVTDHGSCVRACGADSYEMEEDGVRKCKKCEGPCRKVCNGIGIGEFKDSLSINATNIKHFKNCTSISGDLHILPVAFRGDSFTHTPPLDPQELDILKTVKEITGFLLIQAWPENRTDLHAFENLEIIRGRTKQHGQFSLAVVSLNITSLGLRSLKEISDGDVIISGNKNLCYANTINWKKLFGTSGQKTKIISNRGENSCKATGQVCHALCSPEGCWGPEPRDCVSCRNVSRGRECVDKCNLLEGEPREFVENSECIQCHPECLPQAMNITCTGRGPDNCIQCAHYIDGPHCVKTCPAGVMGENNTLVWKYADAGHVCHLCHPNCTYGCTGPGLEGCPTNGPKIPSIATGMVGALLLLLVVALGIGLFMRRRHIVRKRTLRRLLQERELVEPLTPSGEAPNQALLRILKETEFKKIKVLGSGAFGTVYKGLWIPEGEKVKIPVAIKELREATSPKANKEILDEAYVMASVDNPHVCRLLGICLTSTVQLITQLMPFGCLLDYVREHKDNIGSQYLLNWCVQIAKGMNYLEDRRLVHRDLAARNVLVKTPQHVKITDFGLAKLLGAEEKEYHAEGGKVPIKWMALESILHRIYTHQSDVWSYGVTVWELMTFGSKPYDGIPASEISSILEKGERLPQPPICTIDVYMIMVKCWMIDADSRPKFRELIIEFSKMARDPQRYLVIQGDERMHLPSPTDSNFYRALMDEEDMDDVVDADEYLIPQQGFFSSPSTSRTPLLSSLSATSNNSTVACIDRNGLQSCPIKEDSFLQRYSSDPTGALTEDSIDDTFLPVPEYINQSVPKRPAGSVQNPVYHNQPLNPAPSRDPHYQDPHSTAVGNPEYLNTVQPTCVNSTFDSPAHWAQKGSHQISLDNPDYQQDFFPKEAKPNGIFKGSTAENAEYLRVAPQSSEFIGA
Outline: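 pEGFR was quantified by AlphaLISA in lysates of A431 cells (10% FBS) given a 10 min pulse of EGF at 30 ng/mL after 4 h compound exposure at 37 °C. IC50 came from a four-parameter fit of % inhibition between DMSO and staurosporine controls.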

Ba/F3 ERBB2 YVMA, sequence (P04626 with tags, fused parts or gaps DUP772-775): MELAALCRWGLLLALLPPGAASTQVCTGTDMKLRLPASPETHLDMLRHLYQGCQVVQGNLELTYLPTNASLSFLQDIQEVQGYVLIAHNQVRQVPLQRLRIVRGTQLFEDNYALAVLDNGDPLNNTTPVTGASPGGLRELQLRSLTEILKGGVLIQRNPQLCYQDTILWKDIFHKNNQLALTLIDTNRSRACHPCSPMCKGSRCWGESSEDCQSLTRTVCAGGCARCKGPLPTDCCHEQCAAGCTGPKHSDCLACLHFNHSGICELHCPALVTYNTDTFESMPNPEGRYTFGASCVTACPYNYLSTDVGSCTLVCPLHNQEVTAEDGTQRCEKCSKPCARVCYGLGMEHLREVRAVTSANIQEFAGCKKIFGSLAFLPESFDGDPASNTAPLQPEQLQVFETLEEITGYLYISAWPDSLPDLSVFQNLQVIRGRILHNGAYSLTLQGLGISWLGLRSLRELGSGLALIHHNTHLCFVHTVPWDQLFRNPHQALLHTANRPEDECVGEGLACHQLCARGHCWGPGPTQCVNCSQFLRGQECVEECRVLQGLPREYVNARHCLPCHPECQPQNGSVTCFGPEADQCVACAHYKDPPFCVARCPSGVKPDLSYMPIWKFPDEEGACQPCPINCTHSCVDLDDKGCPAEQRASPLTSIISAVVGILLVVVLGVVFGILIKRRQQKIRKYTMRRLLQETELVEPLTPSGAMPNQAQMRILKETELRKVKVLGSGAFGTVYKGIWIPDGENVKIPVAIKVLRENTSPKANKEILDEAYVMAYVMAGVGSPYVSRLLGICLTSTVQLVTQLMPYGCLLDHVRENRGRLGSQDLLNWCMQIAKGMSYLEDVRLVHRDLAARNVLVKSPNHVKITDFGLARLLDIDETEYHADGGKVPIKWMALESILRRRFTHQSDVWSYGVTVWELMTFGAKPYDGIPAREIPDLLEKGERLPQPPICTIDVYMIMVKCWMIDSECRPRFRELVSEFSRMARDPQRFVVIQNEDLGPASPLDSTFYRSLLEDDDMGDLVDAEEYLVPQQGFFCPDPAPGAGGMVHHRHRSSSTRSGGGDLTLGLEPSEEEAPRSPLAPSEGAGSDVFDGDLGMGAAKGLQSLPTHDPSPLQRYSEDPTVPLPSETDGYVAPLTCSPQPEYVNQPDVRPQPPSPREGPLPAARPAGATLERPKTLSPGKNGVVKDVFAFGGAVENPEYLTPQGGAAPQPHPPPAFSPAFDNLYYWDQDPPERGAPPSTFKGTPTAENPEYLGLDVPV

SMILES | GI50 [1] [nM] | IC50 [2] [nM] | IC50 [3] [nM]
C=CC(=O)N1CCN2C[C@H]1COc1c2ccc2ncnc(Nc3ccc(Oc4ccc5c(c4)ncn5C)c(C)c3)c12 [Compound 28, 1-((3S)-13-((3-methyl-4-((1-methyl-1H-benzo[d]imidazol-5-yl)oxy)phenyl)amino)-2,3,5,6-tetrahydro-4H-3,7-methano[1,4,7]oxadiazonino[2,3-f]quinazolin-4-yl)prop-2-en-1-one] | > 500 | 417 | > 10000
Cc1cc(Nc2ncnc3ccc4c(c23)OC[C@@H]2CN(C(=O)/C=C/C3CN(C)C3)CCN42)ccc1Oc1ccn2ncnc2c1 [Compound 114, (S,E)-1-(4-((4-([1,2,4]triazolo[1,5-a]pyridin-7-yloxy)-3-methylphenyl)amino)-6a,7,9,10-tetrahydropyrazino[1′,2′:4,5][1,4]oxazino[2,3-f]quinazolin-8(6H)-yl)-3-(1-methylazetidin-3-yl)prop-2-en-1-one formic acid] | 172 | 43.1 | > 10000
Cc1cc(Nc2ncnc3ccc4c(c23)OC[C@@H]2CN4CCN2C(=O)/C=C/CN(C)C)ccc1Oc1ccn2ncnc2c1 [Compound 26, (E)-1-((3S)-13-((4-([1,2,4]triazolo[1,5-a]pyridin-7-yloxy)-3-methylphenyl)amino)-2,3,5,6-tetrahydro-4H-3,7-methano[1,4,7]oxadiazonino[2,3-f]quinazolin-4-yl)-4-(dimethylamino)but-2-en-1-one] | > 500 | 434 | > 10000
Cc1cc(Nc2ncnc3cnc4c(c23)O[C@H]2CCN(C)C[C@H]2N4C)ccc1Oc1ccc2c(c1)ncn2C [Compound 131, (7aR,11aS)-7,9-dimethyl-N-(3-methyl-4-((1-methyl-1H-benzo[d]imidazol-5-yl)oxy)phenyl)-7a,8,9,10,11,11a-hexahydro-7H-pyrido[4,3-b]pyrimido[5′,4′:4,5]pyrido[2,3-e][1,4]oxazin-1-amine] | 87.1 | 32.7 | > 10000
Cc1cc(Nc2ncnc3cnc4c(c23)OC[C@H]2CN(C(=O)/C=C/CN(C)C)CCN42)c(F)cc1Oc1ccn2ncnc2c1 [Compound 117, (R,E)-1-(4-((4-([1,2,4]triazolo[1,5-a]pyridin-7-yloxy)-2-fluoro-5-methylphenyl)amino)-6a,7,9,10-tetrahydropyrazino[1,2-d]pyrimido[5′,4′:4,5]pyrido[3,2-b][1,4]oxazin-8(6H)-yl)-4-(dimethylamino)but-2-en-1-one] | 6.57 | 13.1 | 1510
Cc1cc(Nc2ncnc3cc4c(cc23)N2CCN(C(=O)/C=C/CN(C)C)C[C@H]2CO4)ccc1Oc1ccc2c(c1)ncn2C [Compound 11, (S,E)-4-(dimethylamino)-1-(11-((3-methyl-4-((1-methyl-1H-benzo[d]imidazol-5-yl)oxy)phenyl)amino)-1,2,4a,5-tetrahydropyrazino[1′,2′:4,5][1,4]oxazino[3,2-g]quinazolin-3(4H)-yl)but-2-en-1-one] | 65.3 | 73.3 | 1180
Cc1cc(Nc2ncnc3cnc4c(c23)OC[C@H]2CN4CCN2C(=O)/C=C/CN(C)C)ccc1Oc1ccn2ncnc2c1 [Compound 82, (E)-1-((3R)-13-((4-([1,2,4]triazolo[1,5-a]pyridin-7-yloxy)-3-methylphenyl)amino)-2,3,5,6-tetrahydro-4H-3,7-methanopyrimido[5′,4′:4,5]pyrido[3,2-b][1,4,7]oxadiazonin-4-yl)-4-(dimethylamino)but-2-en-1-one] | 6.9 | 7.9 | 199
C=CC(=O)N1CCN2c3nc4c(Nc5ccc(Oc6ccc7c(c6)ncn7C)c(C)c5)ncnc4cc3OC[C@H]2C1 [Compound 8, (R)-1-(11-((3-methyl-4-((1-methyl-1H-benzo[d]imidazol-5-yl)oxy)phenyl)amino)-1,2,4a,5-tetrahydropyrazino[1,2-d]pyrimido[4′,5′:5,6]pyrido[3,2-b][1,4]oxazin-3(4H)-yl)prop-2-en-1-one] | 13.3 | 18.1 | 643
